Reference: patent publication US11192921B2 (priority 2017, dated 2021)
“And” between values parts separate entries of the source, which are not always exact repeats. Equal values may be shown once. Read-outs that look alike come from different tables or passages of the source. Marks after values point to notes of the source that are not given here. No end group written: not given here.

How the values were obtained:
Female Kunming mice [1] = test system: Female Kunming mice
Kunming mice [2] = details: mouse, in vivo
Female Kunming mice [3] = test system: Female Kunming mice; remark: listed apart in the source
Female Kunming mice [4] = test system: Female Kunming mice; remark: listed apart in the source
Female Kunming mice [5] = assay type: in vivo
Kunming mice [6] = assay type: in vivo
SD rats = test: pain threshold of trigeminal nerve (trigeminal neuralgia model); assay type: in vivo; details: for highest pain threshold on the operative side / pain threshold on the opposite side: 3 h after injection; for Pain threshold: intraperitoneal
male BALB/c mice = test: cancer-induced pain (CIP) model, thermosensitive test; assay type: in vivo; details: heat radiation stimulation
Description: Influence of Analgesic Polypeptides on Neuralgia in a Cancer-Induced Pain (CIP) Model
A number of male BALB/c mice each weighing 25-30 g were used.
Von Fery monofilament; a microsyringe, 5 mg/mL solutions of polypeptides I, II and II I; normal saline.
BALB/c mice were taken, and the right sciatic nerve was exposed; ascites containing 5×10^4 Meth A sarcoma cells were injected into the proximal nerve near the sciatic nerve trochanter far from the tendon branch of the posterior biceps, the wound was closed, and the same volume of normal saline was injected into the left side by performing a sham operation.
1.3.1 Thermosensitive Test
On the 4th, 7th, 10th and 14th days after inoculation, the latency of foot lifting caused by heat radiation stimulation to animals was observed, and the heat radiation intensity was adjusted to cause the latency of foot lifting of normal mice to be (10±2) s.
All data was expressed as M±SD and subjected to one-way ANOVA.

[7] = 50 μg/kg, injected subcutaneously
[8] = 100 μg/kg, injected subcutaneously

## KCSTPPDAVLYC (cysteine pairing not given here) [Polypeptide III, one pair of disulfide bonds formed between the two cysteines]
Female Kunming mice [1]; 1 h
  Movement distances of mice in open field tests: 18.27 ± 1.22^
  Movement distances of mice in the center area in open field tests: 18.57 ± 1.22^
  Movement distances of mice in the peripheral area in open field tests: 19.47 ± 1.32^
  Number of entrances to the center area in open field tests: 18.47 ± 0.32^
  Number of entrances to the peripheral area in open field tests: 18.57 ± 1.42^
  Residence time in the center area in open field tests: 18.37 ± 1.22^ s
  Residence time in the peripheral area in open field tests: 14.27 ± 1.34^ s
Female Kunming mice [1]; 24 h
  Movement distances of mice in open field tests: 19.13 ± 2.38 m
  Movement distances of mice in the center area in open field tests: 18.13 ±1.38 m
  Movement distances of mice in the peripheral area in open field tests: 19.03 ± 2.48 m
  Number of entrances to the center area in open field tests: 18.23 ± 1.48
  Number of entrances to the peripheral area in open field tests: 17.13 ± 2.18
  Residence time in the center area in open field tests: 18.13 ± 1.38 s
  Residence time in the peripheral area in open field tests: 18.13 ± 1.45 s
Female Kunming mice [1]; Time 0
  Movement distances of mice in open field tests: 21.28 ± 1.28 m
  Movement distances of mice in the center area in open field tests: 21.88 ±1.18 m
  Movement distances of mice in the peripheral area in open field tests: 20.98 ± 1.28 m
  Number of entrances to the center area in open field tests: 21.28 ± 1.28
  Number of entrances to the peripheral area in open field tests: 21.28 ± 1.38
  Residence time in the center area in open field tests: 21.78 ± 1.17 s
  Residence time in the peripheral area in open field tests: 21.88 ± 1.38 s
Female Kunming mice [1]; mouse, in vivo, ip
  side effects compared with conotoxin (open field): lower side effects
  various indexes in open field experiments compared with the normal saline group: no significant difference
Kunming mice [2]
  analgesic effects in formalin-induced pain experiments: good analgesic effects
  cumulative foot licking time, Phase I: 47.19 ± 10.21*^
  cumulative foot licking time, Phase II: 41.23 ± 13.21
Female Kunming mice [3]; 1 h
  Duration of the immobility of mice in tail suspension tests: 20.12 ± 1.28 s
Female Kunming mice [3]; 24 h
  Duration of the immobility of mice in tail suspension tests: 19.23 ± 1.84 s
Female Kunming mice [3]; Time 0
  Duration of the immobility of mice in tail suspension tests: 19.28 ± 1.02 s
Female Kunming mice [3]; mouse, in vivo, ip
  data of tail suspension test compared with the normal saline group: no significant difference
  toxic side effects compared with the conotoxin (tail suspension): lower toxic side effects
Female Kunming mice [4]; 1 h
  Movement duration of mice in forced swimming tests: 18.57 ± 1.21^ s
Female Kunming mice [4]; 24 h
  Movement duration of mice in forced swimming tests: 17.13 ± 1.23 s
Female Kunming mice [4]; Time 0
  Movement duration of mice in forced swimming tests: 21.40 ± 1.38 s
Female Kunming mice [4]; mouse, in vivo, ip
  toxic side effects compared with the conotoxin (forced swimming): lower toxic side effects
Female Kunming mice [5]; 0 min
  Pain threshold: 29.22 ± 0.11 s
Female Kunming mice [5]; mouse, in vivo, ip
  Pain threshold: 31.22 ± 0.42^∧∧ s and 33.12 ± 0.32*^∧ s and 27.23 ± 0.42^∧ s and 21.49 ± 0.45^∧ s and 32.14 ± 0.42 s and 21.43 ± 0.24 s
  heat thresholds of mice compared with the normal saline negative control group: effectively increase the heat thresholds of mice
Kunming mice [6]; 0 min
  Pain threshold (tail flick): 2.31 ± 0.22 s
Kunming mice [6]; 15 min
  Pain threshold (tail flick): 2.22 ± 0.21^∧∧ s
Kunming mice [6]; 30 min
  Pain threshold (tail flick): 2.32 ± 0.12 s
Kunming mice [6]; 45 min
  Pain threshold (tail flick): 4.12 ± 0.12^∧ s
Kunming mice [6]; 60 min
  Pain threshold (tail flick): 2.12 ± 0.21 s
Kunming mice [6]; 75 min
  Pain threshold (tail flick): 2.14 ± 0.12 s
Kunming mice [6]; 90 min
  Pain threshold (tail flick): 3.12 ± 0.14 s
Kunming mice [6]; mouse, in vivo
  difference from the normal saline group during a time period (**P<0.01): significantly different from the normal saline group
SD rats; 50 μg/kg and 100 μg/kg, injected subcutaneously
  animal reaction thresholds: significantly increased
SD rats; [7]
  time the pain thresholds lasted: 1 h
  highest pain threshold on the operative side: 2.3 ± 0.5 g
  pain threshold on the opposite side: 1.2 ± 0.2 g
SD rats; [8]
  time the effect on the operative side lasted: about 8 h
  highest pain threshold on the operative side: 7.4 ± 0.9 g
  pain threshold on the opposite side: 3.2 ± 1.3 g
SD rats; 300 μg/kg, subcutaneously
  pain threshold change: not significantly increased
SD rats; Dose 50 (μg/kg), 0 h
  Pain threshold: 25.98 ± 0.11 s
SD rats; Dose 50 (μg/kg), 1 h
  Pain threshold: 26.25 ± 0.46 s
SD rats; Dose 50 (μg/kg), 2 h
  Pain threshold: 26.69 ± 0.62 s
SD rats; Dose 50 (μg/kg), 3 h
  Pain threshold: 26.91 ± 0.49 s
SD rats; Dose 50 (μg/kg), 4 h
  Pain threshold: 27.91 ± 0.26 s
SD rats; Dose 50 (μg/kg), 5 h
  Pain threshold: 26.91 ± 0.61 s
SD rats; Dose 100 (μg/kg), 0 h
  Pain threshold: 26.56 ± 0.23 s
SD rats; Dose 100 (μg/kg), 1 h
  Pain threshold: 27.65 ± 0.61 s
SD rats; Dose 100 (μg/kg), 2 h
  Pain threshold: 28.16 ± 0.59 s
SD rats; Dose 100 (μg/kg), 3 h
  Pain threshold: 27.19 ± 0.91 s
SD rats; Dose 100 (μg/kg), 4 h
  Pain threshold: 28.16 ± 0.61 s
SD rats; Dose 100 (μg/kg), 5 h
  Pain threshold: 26.16 ± 0.91 s
SD rats; Dose 300 (μg/kg), 0 h
  Pain threshold: 26.15 ± 0.65 s
SD rats; Dose 300 (μg/kg), 1 h
  Pain threshold: 31.95 ± 0.56 s
SD rats; Dose 300 (μg/kg), 2 h
  Pain threshold: 30.21 ± 0.64 s
SD rats; Dose 300 (μg/kg), 3 h
  Pain threshold: 29.91 ± 0.61 s
SD rats; Dose 300 (μg/kg), 4 h
  Pain threshold: 28.85 ± 0.41 s
SD rats; Dose 300 (μg/kg), 5 h
  Pain threshold: 27.92 ± 0.61 s
Male BALB/c mice; before administration
  Latency of foot lifting before administration: 9.77 ± 1.21
Male BALB/c mice; day 4
  Latency (D) of foot lifting after administration: 9.45 ± 1.02
Male BALB/c mice; day 7
  Latency (D) of foot lifting after administration: 8.88 ± 0.86
Male BALB/c mice; day 10
  Latency (D) of foot lifting after administration: 8.26 ± 1.21
Male BALB/c mice; day 14
  Latency (D) of foot lifting after administration: 6.78 ± 1.22
